From ChEMBL document CHEMBL5380860, “Design, Synthesis, and Antitumor Activity of Potent and Selective EGFR L858R/T790M Inhibitors and Identification of a Combination Therapy to Overcome Acquired Resistance in Models of Non-small-cell Lung Cancer” (J Med Chem, 2023)
Calls of active or inactive are those of the source. The rule behind the calls is not given here.

Assays:
Mus musculus [1] = species on record: Mus musculus; details: BALB/c, dose 10.0 mg/kg/day, route po
Mus musculus [2] = species on record: Mus musculus; details: BALB/c, dose 10.0 mg/kg/day, route po; remark: listed apart in the source
NCI-H1975 [3] = assay: Antiproliferative activity against human NCI-H1975 cells harboring EGFR L858R/T790M mutant assessed as reduction in cell viability measured after 72 hrs by MTT assay; format: functional, cell-based; details: NCI-H1975, 72 h
[4] = Covalent binding affinity to L-cysteine assessed as increase in 619.2 Da mass at L-cysteine to compound concentration ratio of 1:4 incubated for 8 hrs by LC-MS analysis
[5] = system: Epidermal growth factor receptor (Homo sapiens), P00533 [L858R,T790M]; assay: Inhibition of human partial length EGFR (R669 to V1011 residues) L858R/T790M mutant expressed in mammalian expression system assessed as residual activity at 1 uM by KINOMEscan analysis
[6] = system: Epidermal growth factor receptor (Homo sapiens), P00533 [T790M]; assay: Inhibition of human partial length EGFR (R669 to G1022 residues) T790M mutant expressed in mammalian expression system assessed as residual activity at 1 uM by KINOMEscan analysis
[7] = target: Epidermal growth factor receptor (Homo sapiens, UniProt P00533, T790M); assay: Inhibition of human partial length EGFR (R669 to G1022 residues) T790M mutant expressed in mammalian expression system by KINOMEscan analysis
[8] = target: Epidermal growth factor receptor (Homo sapiens, UniProt P00533, EX19DEL); assay: Inhibition of human EGFR exon del19 mutant by KINOMEscan analysis
[9] = target: STE20-like serine/threonine-protein kinase (Homo sapiens, UniProt Q9H2G2); assay: Inhibition of human wild type partial length SLK (S14 to A307 residues) expressed in bacterial expression system by KINOMEscan analysis
STE20-like serine/threonine-protein kinase, sequence (Q9H2G2 whole entry, the tested form may be a part): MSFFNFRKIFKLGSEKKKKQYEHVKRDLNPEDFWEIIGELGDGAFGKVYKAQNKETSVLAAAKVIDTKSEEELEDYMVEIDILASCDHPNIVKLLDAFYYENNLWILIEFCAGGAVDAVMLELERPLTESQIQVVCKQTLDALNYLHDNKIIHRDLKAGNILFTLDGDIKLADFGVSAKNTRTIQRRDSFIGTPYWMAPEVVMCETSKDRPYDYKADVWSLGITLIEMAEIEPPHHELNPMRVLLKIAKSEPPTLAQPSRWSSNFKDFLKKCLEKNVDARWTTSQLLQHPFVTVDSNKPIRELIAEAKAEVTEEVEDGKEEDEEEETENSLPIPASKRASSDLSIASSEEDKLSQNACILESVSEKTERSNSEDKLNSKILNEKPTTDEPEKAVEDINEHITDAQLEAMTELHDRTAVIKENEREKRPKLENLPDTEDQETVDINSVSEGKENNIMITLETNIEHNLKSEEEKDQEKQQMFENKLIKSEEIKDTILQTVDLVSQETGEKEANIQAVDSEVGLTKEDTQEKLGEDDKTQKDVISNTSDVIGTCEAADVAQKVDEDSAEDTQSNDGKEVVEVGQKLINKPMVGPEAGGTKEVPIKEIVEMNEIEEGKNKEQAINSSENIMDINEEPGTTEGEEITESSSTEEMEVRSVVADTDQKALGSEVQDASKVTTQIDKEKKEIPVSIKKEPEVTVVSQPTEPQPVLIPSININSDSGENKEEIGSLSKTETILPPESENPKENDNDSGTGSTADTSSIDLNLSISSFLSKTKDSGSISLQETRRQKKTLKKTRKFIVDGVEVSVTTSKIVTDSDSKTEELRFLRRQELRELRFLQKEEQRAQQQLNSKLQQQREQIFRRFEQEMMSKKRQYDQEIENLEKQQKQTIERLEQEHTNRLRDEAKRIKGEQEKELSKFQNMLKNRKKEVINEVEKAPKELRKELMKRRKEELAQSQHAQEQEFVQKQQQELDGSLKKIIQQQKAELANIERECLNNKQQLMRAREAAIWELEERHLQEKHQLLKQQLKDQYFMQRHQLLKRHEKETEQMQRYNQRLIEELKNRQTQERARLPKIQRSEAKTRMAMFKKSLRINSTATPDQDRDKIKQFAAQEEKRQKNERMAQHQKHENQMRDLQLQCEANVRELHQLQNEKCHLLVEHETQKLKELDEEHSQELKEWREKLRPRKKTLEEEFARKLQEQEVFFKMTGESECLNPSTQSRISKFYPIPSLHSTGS

[10] = target: Epidermal growth factor receptor (Homo sapiens, UniProt P00533); assay: Inhibition of wild type EGFR in human A-431 cells assessed as inhibition of EGF-induced Akt phosphorylation at Ser473 residue at 0.1 to 10 uM pretreated with compound for 4 hrs followed by incubation with EGF for 10 mins by western blot analysis; format: toxicity, cell-based; details: a-431, 4.167 h, dose 0.1-10 µM, time 250 min
HCC827 [11] = assay: Induction of apoptosis in human HCC827 cells assessed as induction of caspase-3 cleavage pretreated with compound for 4 hrs followed by incubation with EGF for 10 mins by western blot analysis; format: functional, cell-based; details: dose 0.1-10 µM, time 250.0 min
A-431 [12] = assay: Induction of apoptosis in human A-431 cells assessed as induction of PARP cleavage at 0.1 to 10 uM pretreated with compound for 4 hrs followed by incubation with EGF for 10 mins by western blot analysis; format: toxicity, cell-based; details: a-431, 4.167 h, dose 0.1-10 µM, time 250 min
HCC827 [13] = assay: Induction of apoptosis in human HCC827 cells assessed as increase in caspase-3/7 activity at 0.1 to 10 uM incubated for 24 hrs by Caspase-Glo reagent based luminescence analysis; format: functional, cell-based; details: dose 0.1-10 µM
A-431 [14] = assay: Induction of apoptosis in human A-431 cells assessed as increase in caspase-3/7 activity at 0.1 to 10 uM incubated for 24 hrs by Caspase-Glo reagent based luminescence analysis; format: toxicity, cell-based; details: a-431, 24 h, dose 0.1-10 µM
HCC827 [15] = assay: Inhibition of clonogenicity in human HCC827 cells assessed as inhibition of colony formation incubated for 14 days by crystal violet staining based analysis; format: functional, cell-based; details: dose 0.1-10 µM, time 14.0 day
NCI-H1975 [16] = assay: Inhibition of clonogenicity in human NCI-H1975 cells assessed as inhibition of colony formation at 0.1 uM incubated for 14 days by crystal violet staining based analysis; format: functional, cell-based; details: time 14.0 day
NCI-H1975 [17] = assay: Inhibition of cell migration in human NCI-H1975 cells incubated for 48 hrs by scratch wound healing assay; format: functional, cell-based; details: dose 0.1-10 µM
[18] = GSH reactivity in PBS buffer assessed as half life by HPLC analysis; format: ADME; details: PBS buffer with GSH
[19] = Apparent volume of distribution in Sprague-Dawley rat at 1 mg/kg, iv by LC-MS analysis; format: ADME, organism-based; details: in vivo, read-out: Vz
[20] = Toxicity in BALB/c mouse xenografted with human NCI-H1975 cells assessed as change in heart morphological changes at 5 to 20 mg/kg/day, ip by hematoxylin-eosin staining based analysis; format: organism-based; details: in vivo, dose 5-20 mg/kg/day
Mus musculus [21] = assay: In vivo inhibition of EGFR L858R/T790M mutant in NCI-H1975 cells xenografted BALB/c mouse assessed as inhibition of EGFR phosphorylation at Tyr1068 residue at 5 to 20 mg/kg/day, ip in tumor by immunohistochemistry; format: functional, organism-based; details: dose 5-20 mg/kg/day
NCI-H1975 [22] = assay: (§1) Antiproliferative activity against N-(3-((6-Fluoro-2-((4-(4-methylpiperazin-1-yl)phenyl)amino)quinazolin-4-yl)amino)phenyl)acrylamide-resistant human NCI-H1975 cells assessed as reduction in cell viability at compound:AIM100 concentration ratio of 3:1 to 1:3 measured after 72 hrs in presence of ACK1 inhibitor, AIM100 by MTT assay; format: functional, cell-based
NCI-H1975 [23] = assay: as §1, with “compound:Bosutinib” for “compound:AIM100”, “Bosutinib” for “AIM100”; format: functional, cell-based
[24] = system: Epidermal growth factor receptor (Homo sapiens), P00533 [L858R,T790M]; assay: (§2) Inhibition of EGFR L858R/T790M mutant in N-(3-((6-Fluoro-2-((4-(4-methylpiperazin-1-yl)phenyl)amino)quinazolin-4-yl)amino)phenyl)acrylamide-resistant human NCI-H1975 cells assessed as inhibition of EGF-induced EGFR phosphorylation at Tyr1068 residue pretreated with compound for 4 hrs followed by incubation with EGF for 10 mins by western blot analysis; format: cell-based; details: time 250.0 min
[25] = system: Epidermal growth factor receptor (Homo sapiens), P00533 [L858R,T790M]; assay: as §2, with “EGF-induced AKT” for “EGF-induced EGFR”, “at Ser473” for “at Tyr1068”, “compound and ACK1 inhibitor, AIM-100” for “compound”; format: cell-based; details: time 250.0 min
[26] = system: Epidermal growth factor receptor (Homo sapiens), P00533 [L858R,T790M]; assay: as §2, with “EGF-induced AKT” for “EGF-induced EGFR”, “at Ser473” for “at Tyr1068”, “compound and ACK1 inhibitor, Bosutinib” for “compound”; format: cell-based; details: time 250.0 min
[27] = (§3) Toxicity in BALB/c mouse xenografted with N-(3-((6-Fluoro-2-((4-(4-methylpiperazin-1-yl)phenyl)amino)quinazolin-4-yl)amino)phenyl)acrylamide-resistant human NCI-H1975 cells assessed as changes in heart morphological changes at 20 mg/kg/day, ip in presence of ACK1 inhibitor, dasatinib by hematoxylin-eosin staining based analysis; format: organism-based; details: in vivo
[28] = as §3, with “liver” for “heart”; format: organism-based; details: in vivo
NCI-H1975 [29] = assay: Antitumor activity against N-(3-((6-Fluoro-2-((4-(4-methylpiperazin-1-yl)phenyl)amino)quinazolin-4-yl)amino)phenyl)acrylamide-resistant human NCI-H1975 cells xenografted in BALB/c mouse assessed as […] in TUNEL-positive cells in tumor at 20 mg/kg/day, ip in presence of ACK1 inhibitor, dasatinib by TUNEL assay; format: functional, organism-based
NCI-H1975 [30] = assay: Antitumor activity against N-(3-((6-Fluoro-2-((4-(4-methylpiperazin-1-yl)phenyl)amino)quinazolin-4-yl)amino)phenyl)acrylamide-resistant human NCI-H1975 cells xenografted in BALB/c mouse assessed as inhibition of tumor weight at 20 mg/kg/day, ip in presence of ACK1 inhibitor, dasatinib; format: functional, organism-based

## C=CC(=O)Nc1cc(Nc2nccc(-c3cn(C)c4ccccc34)n2)c(OC)cc1N(C)CCN(C)C [OSIMERTINIB]
Mus musculus [1]
  inhibition: Active
Mus musculus [2]
  inhibition: Active

## C=CC(=O)Nc1cccc(Nc2nc(Nc3ccc(N4CCN(C)CC4)cc3)nc3ccc(F)cc23)c1
NCI-H1975 [3]
  IC50: 19 nM
[4]
  Activity: Active
[5]
  Activity: 1%
[6]
  Activity: 3%
[7]
  IC50: 6.7 nM
[8]
  IC50: 1.3 nM
[9]
  IC50: 892 nM
[10]
  inhibition (INH): Not Active
HCC827 [11]
  Activity: Dose-Dependent Effect
A-431 [12]
  Activity: Non-Toxic
HCC827 [13]
  Activity: Active
A-431 [14]
  Activity: Non-Toxic
HCC827 [15]
  inhibition: Dose-Dependent Effect
NCI-H1975 [16]
  inhibition: Active
NCI-H1975 [17]
  inhibition: Dose-Dependent Effect
[18]
  half-life: 72.9 h
[19]
  Vd: 2.52 L/kg
[20]
  Activity: Non-Toxic
Mus musculus [21]
  inhibition: Active
NCI-H1975 [22]
  Activity: Active
NCI-H1975 [23]
  Activity: Active
[24]
  inhibition: Active
[25]
  inhibition: Active
[26]
  inhibition: Active
[27]
  Activity: Non-Toxic
[28]
  Activity: Non-Toxic
NCI-H1975 [29]
  Activity: Active
NCI-H1975 [30]
  Activity: Active
